Assay: xn = mol fraction of the nth substance listed
Settings: 100 kPa

## CCCC[n+]1ccn(C)c1C.F[B-](F)(F)F + O=C1CCCN1
293.15 K, x1 = 0.0698
  speed of sound: 1659.6 m/s
293.15 K, x1 = 0.1948
  speed of sound: 1670.6 m/s
293.15 K, x1 = 0.2495
  speed of sound: 1672.1 m/s
293.15 K, x1 = 0.2945
  speed of sound: 1671.9 m/s
293.15 K, x1 = 0.3428
  speed of sound: 1670.8 m/s
293.15 K, x1 = 0.3964
  speed of sound: 1666.8 m/s
293.15 K, x1 = 0.4419
  speed of sound: 1661.9 m/s
293.15 K, x1 = 0.5004
  speed of sound: 1653.8 m/s
293.15 K, x1 = 0.5563
  speed of sound: 1645.8 m/s
293.15 K, x1 = 0.5949
  speed of sound: 1640.2 m/s
293.15 K, x1 = 0.6984
  speed of sound: 1626.6 m/s
293.15 K, x1 = 0.7521
  speed of sound: 1622.1 m/s
293.15 K, x1 = 0.8549
  speed of sound: 1623.2 m/s
293.15 K, x1 = 0.9564
  speed of sound: 1642.5 m/s
298.15 K, x1 = 0.0698
  speed of sound: 1644.9 m/s
298.15 K, x1 = 0.1052
  speed of sound: 1649.6 m/s
298.15 K, x1 = 0.1948
  speed of sound: 1659.8 m/s
298.15 K, x1 = 0.2495
  speed of sound: 1662.8 m/s
298.15 K, x1 = 0.2945
  speed of sound: 1663.3 m/s
298.15 K, x1 = 0.3428
  speed of sound: 1662 m/s
298.15 K, x1 = 0.3964
  speed of sound: 1658.3 m/s
298.15 K, x1 = 0.5004
  speed of sound: 1645.7 m/s
298.15 K, x1 = 0.5563
  speed of sound: 1637.1 m/s
298.15 K, x1 = 0.5949
  speed of sound: 1630.9 m/s
298.15 K, x1 = 0.6419
  speed of sound: 1623.6 m/s
298.15 K, x1 = 0.6984
  speed of sound: 1616.1 m/s
298.15 K, x1 = 0.8031
  speed of sound: 1608.8 m/s
298.15 K, x1 = 0.8549
  speed of sound: 1610.3 m/s
298.15 K, x1 = 0.9021
  speed of sound: 1615.8 m/s
298.15 K, x1 = 0.9564
  speed of sound: 1628.7 m/s
303.15 K, x1 = 0.0698
  speed of sound: 1629.3 m/s
303.15 K, x1 = 0.1052
  speed of sound: 1634.8 m/s
303.15 K, x1 = 0.1469
  speed of sound: 1640.6 m/s
303.15 K, x1 = 0.2945
  speed of sound: 1652 m/s
303.15 K, x1 = 0.3428
  speed of sound: 1651.2 m/s
303.15 K, x1 = 0.4419
  speed of sound: 1643.3 m/s
303.15 K, x1 = 0.5004
  speed of sound: 1635.6 m/s
303.15 K, x1 = 0.5563
  speed of sound: 1626.5 m/s
303.15 K, x1 = 0.5949
  speed of sound: 1620.4 m/s
303.15 K, x1 = 0.6419
  speed of sound: 1613.1 m/s
303.15 K, x1 = 0.6984
  speed of sound: 1605.4 m/s
303.15 K, x1 = 0.7521
  speed of sound: 1599.8 m/s
303.15 K, x1 = 0.8031
  speed of sound: 1596.7 m/s
303.15 K, x1 = 0.8549
  speed of sound: 1597.8 m/s
303.15 K, x1 = 0.9021
  speed of sound: 1603.4 m/s
308.15 K, x1 = 0.0698
  speed of sound: 1615.7 m/s
308.15 K, x1 = 0.1052
  speed of sound: 1621.9 m/s
308.15 K, x1 = 0.1469
  speed of sound: 1628.7 m/s
308.15 K, x1 = 0.1948
  speed of sound: 1634.9 m/s
308.15 K, x1 = 0.2495
  speed of sound: 1638.3 m/s
308.15 K, x1 = 0.2945
  speed of sound: 1640.1 m/s
308.15 K, x1 = 0.3428
  speed of sound: 1639.9 m/s
308.15 K, x1 = 0.3964
  speed of sound: 1637.2 m/s
308.15 K, x1 = 0.4419
  speed of sound: 1633 m/s
308.15 K, x1 = 0.5004
  speed of sound: 1625.8 m/s
308.15 K, x1 = 0.5563
  speed of sound: 1617.3 m/s
308.15 K, x1 = 0.5949
  speed of sound: 1611.1 m/s
308.15 K, x1 = 0.6419
  speed of sound: 1603.7 m/s
308.15 K, x1 = 0.6984
  speed of sound: 1595.6 m/s
308.15 K, x1 = 0.7521
  speed of sound: 1589.4 m/s
308.15 K, x1 = 0.8031
  speed of sound: 1586.2 m/s
308.15 K, x1 = 0.8549
  speed of sound: 1586.8 m/s
308.15 K, x1 = 0.9021
  speed of sound: 1591.6 m/s
308.15 K, x1 = 0.9564
  speed of sound: 1603.7 m/s

Reference: a compilation of properties of binary mixtures (doi:10.1007/s10953-021-01127-x)
